Literature values, collected in patent publication US9078864B2, “Agonists for antimicrobial peptide systems” (priority 2008, dated 2015).

Test system: shigellosis
Conditions: patients with shigellosis; unit not given; cited from earlier work

SMILES: CC(C)(C)C(=O)OCOC(=O)[C@@H]1N2C(=O)[C@@H](/N=C/N3CCCCCC3)[C@H]2SC1(C)C [pivmecillinam]
- duration of diarrhoea (mean±SD): 3.2±1.8
